In article PMC12591170, “Glabridin‐Gold(I) Complex as a Novel Immunomodulatory Agent Targeting TrxR and MAPK Pathways for Synergistic Enhancement of Antitumor Immunity” (Advanced Science, 2025):

Key:
[1] = test system: HepG2 cells; experiment: MTT antiproliferative assay, HepG2; format: cell-based, human; conditions: 72 h MTT assay, Mean ± SD
Protocol: (§1) All cells were incubated at 37 °C by DMEM complete medium (containing 1% penicillin−streptomycin and 12% FBS) in 5% CO2 incubator. 2–5 × 10^3 cells were cultured in 96‐well plates and each well contained 100 µL complete medium. OXA was dissolved in water, and all other complexes were dissolved in DMF. After cells adhered in the wells, different concentrations of complexes were diluted in 100 µL complete medium and added in the wells. The final volume in the each well was 200 µL and the content of DMF was maximum 0.5%. After 72 h incubation, the antiproliferative activity was tested by MTT assay.

[2] = Stability analysis by 1H NMR; format: physicochemical
Protocol: 5 mM of complex 6d was incubated with DMSO‐d6 or the mixed solution (DMSO‐d6 /D2O = 9:1) or the same mixed solution with 5 mM of GSH for different times (0 – 72 h), and the ^1H NMR spectra were acquired. The stability of AF was determined by the same method.

[3] = test system: MAPK pathway (phosphorylated MEK1/2 and ERK1/2); experiment: Western blot of MAPK pathway in HepG2; format: cell-based, human; conditions: HepG2, 24 h
Protocol: (§2) HepG2 cells were incubated in 6 cm culture dishes and treated with different complexes. The treated cells were lysed with lysis buffer (RIPA:PMSF:phosphatase inhibitor:protease inhibitor = 100:1:1:1). The lysed cells were further broken by sonication, and proteins were isolated by centrifugation. The protein concentrations were detected by BCA assay. 10% SDS PAGE gel was usually applied to separate the different kDa of proteins, and more than 200 kDa of proteins were separated using 8% SDS PAGE gel. After seperation, proteins were transferred onto polyvinylidene difluoride (PVDF) membranes. The target proteins were labeled by various specific primary antibodies at 4 °C overnight. Then, the membranes were treated with anti‐rabbit or anti‐mouse secondary antibody for 2 h. Tris buffered saline with tween 20 (TBST) was applied to wash the membranes after each operation above. The target proteins’ bands were detected by the enhanced chemiluminescence (ECL) procedure.

[4] = test system: PD-L1; experiment: PD-L1 expression in HepG2 (western blot, immunofluorescence, flow cytometry); format: cell-based, human; conditions: HepG2, 24 h
Protocol: as §2
5 × 10^4 HepG2 cells were treated with complexes in 24‐well plates for 24 h. Subsequently, cells were fixed with 4% paraformaldehyde. Various specific antibodies were added for incubation at 4 °C overnight after cells were permeabilized with Triton X‐100 (except for membrane proteins) and blocked with BSA. Then, the cells were incubated with fluorescently‐labeled secondary antibodies in darkness for 2 h. After that, DAPI was added to stain nuclear in darkness. PBS was applied for washing after each operation above (Tris buffered saline (TBS) was applied for washing if phosphorylated protein was analyzed). The cell images were captured by the fluorescence microscopy.
4 × 10^5 HepG2 cells were incubated in 6‐well plates, and complexes were added in the wells. The cells were collected after incubation, and the treated cells were labeled with probes or fluorescently‐labeled antibodies. A flow cytometer was applied to analyze the labeled cells.

[5] = test system: phosphorylated Akt; experiment: Western blot of phosphorylated Akt in HepG2; format: cell-based, human; conditions: HepG2, 24 h; GLA at 8 µM
Protocol: as §2

[6] = test system: HIF-1α; experiment: Western blot of HIF-1α in HepG2; format: cell-based, human; conditions: HepG2, 24 h
Protocol: as §2

[7] = Metabolic stability in whole blood; conditions: mouse
[8] = test system: Hepa1-6 cells; experiment: MTT antiproliferative assay, Hepa1-6; format: cell-based; conditions: Mus musculus, Hepa1-6; 72 h MTT assay, Mean ± SD
Protocol: as §1

[9] = test system: 293T cells; experiment: MTT assay, normal kidney cell line 293T; format: cell-based; conditions: Homo sapiens, HEK-293T; 72 h MTT assay, Mean ± SD
Protocol: as §1

[10] = test system: Hepa1-6 tumors; experiment: In vivo antitumor assay, Hepa1-6 tumors; design: species or system C57BL/6 mice; conditions: after 13 days; 6d and OXA 5 mg kg^−1, GLA 10 mg kg^−1, i.p. every two days
[11] = test system: MAPK pathway (phosphorylated MEK1/2 and ERK1/2); experiment: In vivo MAPK pathway in tumor tissue; design: species or system C57BL/6 mice; conditions: western blot, day 13
[12] = test system: immune cells in Hepa1-6 tumor and spleen tissue; experiment: In vivo immune cell and marker analysis (flow cytometry, immunofluorescence, immunohistochemistry); design: species or system C57BL/6 mice; conditions: for DC maturation in spleen and tumor tissues / macrophage polarization in tumor: flow cytometry and immunofluorescence; for T lymphocyte infiltration in tumor: flow cytometry and immunohistochemistry; for MDSC infiltration in tumor / Treg infiltration in tumor (Foxp3): vs model group, 13 days
[13] = In vivo tolerability (body weight, survival, organ H&E)
Protocol: All mice were 6–8 weeks old males and procured from Hangzhou Medical College, located in Hangzhou, China. […] 2 × 10^6 Hepa1‐6 cells in 100 µL DMEM were subcutaneously seeded in underarms of C57BL/6 mice. […] Meanwhile, the mice weights and tumor volume were recorded, and the calculation formula of tumor volume was Volume = Width^2 × Length/2. After 13 days, all mice were sacrificed for collection of tumors, hearts, livers, spleens, lungs and kidneys. Collagenase IV (1 mg mL^−1) and DNase I (1 µg mL^−1) were applied to digest a part of the tumor tissue into cell suspension, and lysis buffer was used to remove red blood cells. The prepared cells above were stained with antibodies (anti‐CD3e‐FITC, and anti‐CD8a‐PE; anti‐CD11c‐APC, anti‐CD80‐PE, and anti‐CD86‐FITC; anti‐CD45‐Percp, anti‐CD11b‐APC, and anti‐Ly‐6G/Ly‐6C(Gr‐1)‐FITC; anti‐CD11b‐APC, anti‐CD206‐PE, and CD86‐FITC). CD3^+CD8^+ T cells, CD80^+CD86^+ DCs, CD11b^+Gr‐1^+ MDSCs, CD206^−CD86^+ M1‐type macrophages and CD206^+CD86^− M2‐type macrophages were analyzed by flow cytometry. Then, another part of tumor tissues were fixed with 4% paraformaldehyde, embedded in paraffin, cut into slices and stained with antibodies for immunofluorescence and immunohistochemistry analysis. H&E stain assays were applied for all tissue samples.

[14] = design: method as in PMID 30146723; conditions: antitumor activity; cited from earlier work
[15] = test system: PD-L1; experiment: In vivo PD-L1 expression in tumor tissue; design: species or system C57BL/6 mice; conditions: western blot, 13 days of treatment

Compound	IC50 [1]	PD-L1 expression (western blot) [4]	Akt phosphorylation (western blot) [5]	IC50 ([1]; Homo sapiens, HepG2)	IC50 [8]	IC50 [9]	tumor growth vs model group [10]	MAPK pathway activation (phosphorylation of MEK1/2 and ERK1/2) in tumor tissue [11]	DC maturation in spleen and tumor tissues [12]	macrophage polarization in tumor [12]	T lymphocyte infiltration in tumor [12]	Arg-1 expression in tumor tissue ([12]; immunofluorescence)	CRT exposure in tumor tissue ([12]; immunofluorescence)	MDSC infiltration in tumor [12]	Treg infiltration in tumor (Foxp3) [12]	further results
CC(=O)OC[C@H]1O[C@@H]([S-])[C@H](OC(C)=O)[C@@H](OC(C)=O)[C@@H]1OC(C)=O.CCP(CC)CC.[Au+] [AF, auranofin, reference compound]	3.54 ± 0.34 µM	upregulation	inhibited Akt phosphorylation													stability by 1H NMR [2]: remained stable; time after which 1H NMR spectra began to change / showed new peaks ([2]; 5 mM complex, DMSO-d6/D2O 9:1 containing GSH (5 mM)): 2 h; ERK1/2 phosphorylation (western blot, Figure S49) [3]: significantly enhancing ERK1/2 phosphorylation; HIF-1α expression (western blot) [6]: promoted
CC(C)[N+](C)(CCOC(=O)C1c2ccccc2Oc2ccccc21)C(C)C [Propantheline bromide]																-k [7]: 0.0216; half-life [7]: 32.1 min; remaining at 0 h [7]: 100%; remaining at 5 min [7]: 88.5%; remaining at 0.25 h [7]: 66%; remaining at 0.5 h [7]: 47.5%; remaining at 1 h [7]: 21.8%; remaining at 2 h [7]: 7.63%
CC1(C)C=Cc2c(ccc3c2OC[C@@H](c2ccc(O)cc2O)C3)O1 [GLA, glabridin]		did not exhibit this effect	did not significantly affect Akt phosphorylation	39.5 ± 4.68 µM	37.6 ± 1.73 µM	43.4 ± 4.47 µM	did not show an obvious effect on tumor growth	significantly inhibited	induced DC maturation	significantly promoted M1‐type macrophage polarization	did not enhance T lymphocyte infiltration	downregulation	did not induce CRT exposure	reducing the infiltration	reducing the infiltration	effect on mice body weight ([13]; 6d and OXA 5 mg kg^−1, GLA 10 mg kg^−1, i.p. every two days, OXA after nine days): no significant effect; organ tissue damage (H&E staining) ([13]; heart, liver, spleen, lung, kidney, day 13): did not cause noticeable damage to organ tissues; suggested minimum effective dose [14]: 10 mg/kg
CC1(C)C=Cc2c(ccc3c2OC[C@@H](c2ccc(OCCCCCBr)cc2OCCCCCBr)C3)O1 [3b]				> 20 µM	> 20 µM	> 20 µM										
O=C1[O][Pt]2([NH][C@@H]3CCCC[C@H]3[NH]2)[O]C1=O [OXA, oxaliplatin]	4.08 ± 0.97 µM	did not affect					significant tumor growth inhibition	promoted the phosphorylation	induced DC maturation	promoted M2‐type polarization	promoted T lymphocyte infiltration	promoted the expression	promoted CRT exposure	higher level of MDSC infiltration	higher number of infiltrated Tregs	phosphorylation of MEK1/2 and ERK1/2 (western blot) [3]: no effect; PD-L1 expression in tumor tissue [15]: upregulated; GzmB expression in tumor tissue ([12]; immunofluorescence, OXA vs model group, 6d vs OXA group): did not increase obviously
